According to paper PMC5896746 (ACS chemical biology, 2017):
Positions count from the first letter of the chain named.

Tests used:
hPKG Iβ 1–351 G306E = biological target: T1, hPKG Iβ 1–351 G306E (Homo sapiens, UniProt Q13976, G291E); assay: Competitive SPR, PKG Iβ R domain with site B disabled; type: binding; details: own affinity data
T1 sequence (Q13976 1-351 isoform Q13976-2 G306E): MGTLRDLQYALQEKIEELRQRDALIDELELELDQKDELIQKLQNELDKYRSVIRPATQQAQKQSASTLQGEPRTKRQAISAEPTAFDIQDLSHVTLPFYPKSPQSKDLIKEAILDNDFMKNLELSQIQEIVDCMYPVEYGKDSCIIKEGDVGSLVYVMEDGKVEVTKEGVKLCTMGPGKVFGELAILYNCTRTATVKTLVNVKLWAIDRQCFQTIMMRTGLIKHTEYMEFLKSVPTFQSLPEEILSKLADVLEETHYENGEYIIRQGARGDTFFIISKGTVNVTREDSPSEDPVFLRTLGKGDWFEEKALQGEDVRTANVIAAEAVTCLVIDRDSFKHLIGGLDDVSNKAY

hPKG II 41–418 wt = biological target: T2, hPKG II 41–418 wt (Homo sapiens, UniProt Q13237); assay: Competitive SPR; type: binding; details: for Isotype selectivity in binding, PKG II: selective in binding PKG II
T2 sequence (Q13237 41-418): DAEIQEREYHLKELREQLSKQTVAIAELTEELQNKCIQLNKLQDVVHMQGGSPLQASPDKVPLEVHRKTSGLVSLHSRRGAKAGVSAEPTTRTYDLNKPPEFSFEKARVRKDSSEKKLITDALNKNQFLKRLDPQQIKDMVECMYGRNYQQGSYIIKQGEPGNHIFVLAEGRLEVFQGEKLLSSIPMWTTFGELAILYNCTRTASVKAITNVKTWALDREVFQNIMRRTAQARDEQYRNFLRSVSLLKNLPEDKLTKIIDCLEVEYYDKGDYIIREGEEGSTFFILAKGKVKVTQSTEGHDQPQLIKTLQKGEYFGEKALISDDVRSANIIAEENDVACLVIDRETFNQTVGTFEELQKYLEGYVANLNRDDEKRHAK

PKG II = details: read-out: Activation constant (previous activation data); cited from earlier work
PKG I = PKG I preincubated with [3H]cGMP, cited from earlier work
hPKG Iβ 5–676 = biological target: T3, hPKG Iβ 5–676 (Homo sapiens, UniProt Q13976); assay: Microfluidic mobility-shift kinase activation assay, PKG Iβ; details: for Activation constant Ka ± SEM: full-length PKG Iβ, microfluidic mobility shift assay
T3 sequence (Q13976 5-686 isoform Q13976-2): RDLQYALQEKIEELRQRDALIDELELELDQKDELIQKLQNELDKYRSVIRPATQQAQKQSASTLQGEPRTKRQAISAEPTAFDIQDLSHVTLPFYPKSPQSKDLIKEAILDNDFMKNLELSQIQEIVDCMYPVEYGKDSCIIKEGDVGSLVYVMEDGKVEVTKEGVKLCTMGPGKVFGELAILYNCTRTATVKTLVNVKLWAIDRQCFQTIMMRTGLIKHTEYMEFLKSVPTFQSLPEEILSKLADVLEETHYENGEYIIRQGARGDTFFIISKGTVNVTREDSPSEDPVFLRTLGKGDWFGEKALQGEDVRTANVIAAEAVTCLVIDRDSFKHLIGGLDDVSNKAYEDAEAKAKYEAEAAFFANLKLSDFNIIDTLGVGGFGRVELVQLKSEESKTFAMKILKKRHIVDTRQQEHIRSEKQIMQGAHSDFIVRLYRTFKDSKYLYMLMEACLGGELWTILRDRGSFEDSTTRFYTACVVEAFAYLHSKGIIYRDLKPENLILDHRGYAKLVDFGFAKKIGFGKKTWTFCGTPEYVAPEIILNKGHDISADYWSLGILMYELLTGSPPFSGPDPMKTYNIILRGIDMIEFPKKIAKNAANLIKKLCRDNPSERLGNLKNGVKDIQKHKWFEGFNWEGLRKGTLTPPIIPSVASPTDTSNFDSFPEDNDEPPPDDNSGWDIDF

hPKG II 1–762 = biological target: T4, hPKG II 1–762 (Homo sapiens, UniProt Q13237); assay: Microfluidic mobility-shift kinase activation assay, PKG II; details: for Isotype selectivity in activating, PKG II: selective in activating PKG II; for Activation constant Ka ± SEM: full-length PKG II, microfluidic mobility shift assay
T4 sequence (Q13237 1-762): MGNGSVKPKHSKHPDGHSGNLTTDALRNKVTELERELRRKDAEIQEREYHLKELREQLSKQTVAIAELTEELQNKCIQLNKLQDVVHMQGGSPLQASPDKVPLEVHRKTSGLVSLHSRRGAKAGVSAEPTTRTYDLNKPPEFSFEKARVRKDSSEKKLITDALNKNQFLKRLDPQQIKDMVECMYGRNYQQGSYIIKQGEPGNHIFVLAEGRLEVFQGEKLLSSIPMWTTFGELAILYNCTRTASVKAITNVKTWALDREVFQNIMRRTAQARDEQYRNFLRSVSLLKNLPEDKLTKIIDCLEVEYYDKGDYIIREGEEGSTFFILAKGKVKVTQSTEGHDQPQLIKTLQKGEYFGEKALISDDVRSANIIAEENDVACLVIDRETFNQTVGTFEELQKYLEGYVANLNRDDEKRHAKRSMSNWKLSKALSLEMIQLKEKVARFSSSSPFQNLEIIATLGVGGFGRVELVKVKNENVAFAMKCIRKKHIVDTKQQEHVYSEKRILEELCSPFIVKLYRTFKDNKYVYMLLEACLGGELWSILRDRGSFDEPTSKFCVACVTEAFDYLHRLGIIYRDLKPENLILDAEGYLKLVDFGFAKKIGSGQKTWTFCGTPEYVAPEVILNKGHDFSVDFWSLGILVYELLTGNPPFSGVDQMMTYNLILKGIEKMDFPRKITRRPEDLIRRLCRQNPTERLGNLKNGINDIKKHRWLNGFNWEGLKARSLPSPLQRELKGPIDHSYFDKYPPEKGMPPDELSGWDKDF

hPKG II 41–418 G356E = biological target: T5, hPKG II 41–418 G356E (Homo sapiens, UniProt Q13237, G356E); assay: Competitive SPR, PKG II R domain with site B disabled; type: binding
T5 sequence (Q13237 41-418 G356E): T2 sequence (Q13237 41-418) with G316E

PKG Iβ = details: read-out: Activation constant (previous activation data); cited from earlier work
hPKG Iβ 1–351 G182E = biological target: T6, hPKG Iβ 1–351 G182E (Homo sapiens, UniProt Q13976, G167E); assay: Competitive SPR, PKG Iβ R domain with site A disabled; type: binding; details: own affinity data
T6 sequence (Q13976 1-351 isoform Q13976-2 G182E): T1 sequence (Q13976 1-351 isoform Q13976-2 G306E) with G182E, E306G

hPKG Iβ 1–351 wt = biological target: T7, hPKG Iβ 1–351 wt (Homo sapiens, UniProt Q13976); assay: Competitive SPR
T7 sequence (Q13976 1-351 isoform Q13976-2): T1 sequence (Q13976 1-351 isoform Q13976-2 G306E) with E306G

| Activation constant Ka ± SEM (hPKG Iβ 5–676) | Selectivity for PKG II (EC50 compared to cGMP) (hPKG II 41–418 wt; wild type R domain, SPR) | Reduction of EC50 at A site of PKG II compared to cGMP (hPKG II 41–418 G356E) [fold] | Activation constant Ka ± SEM (hPKG II 1–762) | Binding to B site, fold stronger than cGMP (hPKG Iβ 1–351 G182E) | Isotype selectivity in activating, PKG Iβ (hPKG Iβ 5–676; selective in activating PKG Iβ) | Isotype selectivity in binding, PKG Iβ (hPKG Iβ 1–351 wt; selective in binding PKG Iβ) | Selectivity for PKG Iβ (EC50 compared to cGMP) (hPKG Iβ 1–351 wt; wild type R domain, SPR) | Compound | Binding to A site, fold stronger than cGMP (hPKG Iβ 1–351 G306E) | Isotype selectivity in binding, PKG II (hPKG II 41–418 wt) | EC50 (PKG II) [nM] | Binding to slowly exchanging site (A site), fold stronger than cGMP (PKG I) [fold] | Isotype selectivity in activating, PKG II (hPKG II 1–762) | EC50 (PKG Iβ) [nM] | Binding to B site, fold stronger than cGMP (PKG I; rapidly exchanging site) [fold] |
| --- | --- | --- | --- | --- | --- | --- | --- | --- | --- | --- | --- | --- | --- | --- | --- |
| 249 ± 17 nM (3) | ~ 19 fold | > 50 | 22 ± 3 nM (4) | – | – | – | – | Nc1nc2c(nc(Sc3ccc(Cl)cc3)n2[C@@H]2O[C@@H]3COP(=O)(O)O[C@H]3[C@H]2O)c(=O)[nH]1 [8-pCPT-cGMP, 8-(4-chlorophenylthio)guanosine-3′-5′-cyclic monophosphate] | – | 40–50 fold | – | – | ~ 10 fold | 440 | – |
| 18 ± 2 nM (3) | – | – | 225 ± 13 nM (3) | over 50 fold | ~ 10 fold | 40–50 fold | ~ 40 fold | O=c1c2ncn([C@@H]3O[C@@H]4COP(=O)(O)O[C@H]4[C@H]3O)c2nc2[nH]c(-c3ccccc3)cn12 [PET-cGMP, β-phenyl-1,N2-ethenoguanosine 3′,5′-monophosphate] | – | – | – | – | – | 20 | 10 |
| – | – | – | – | – | – | – | – | Nc1nc2c(ncn2[C@@H]2O[C@@H]3COP(=O)(O)O[C@H]3[C@H]2O)c(=O)[nH]1 [cGMP, Cyclic GMP] | – | – | 40 to 360 | – | – | 250 | – |

| Compound | Activation constant Ka ± SEM (hPKG Iβ 5–676) | Selectivity for PKG II (EC50 compared to cGMP) (hPKG II 41–418 wt; wild type R domain, SPR) | Reduction of EC50 at A site of PKG II compared to cGMP (hPKG II 41–418 G356E) [fold] | Activation constant Ka ± SEM (hPKG II 1–762) | Binding to B site, fold stronger than cGMP (hPKG Iβ 1–351 G182E) | Isotype selectivity in activating, PKG Iβ (hPKG Iβ 5–676; selective in activating PKG Iβ) | Isotype selectivity in binding, PKG Iβ (hPKG Iβ 1–351 wt; selective in binding PKG Iβ) | Selectivity for PKG Iβ (EC50 compared to cGMP) (hPKG Iβ 1–351 wt; wild type R domain, SPR) | Binding to A site, fold stronger than cGMP (hPKG Iβ 1–351 G306E) | Isotype selectivity in binding, PKG II (hPKG II 41–418 wt) | EC50 (PKG II) [nM] | Binding to slowly exchanging site (A site), fold stronger than cGMP (PKG I) [fold] | Isotype selectivity in activating, PKG II (hPKG II 1–762) | EC50 (PKG Iβ) [nM] | Binding to B site, fold stronger than cGMP (PKG I; rapidly exchanging site) [fold] |
| --- | --- | --- | --- | --- | --- | --- | --- | --- | --- | --- | --- | --- | --- | --- | --- |
| Nc1nc2c(nc(Br)n2[C@@H]2O[C@@H]3COP(=O)(O)O[C@H]3[C@H]2O)c(=O)[nH]1 [8-Br-cGMP, 8-bromoguanosine 3′,5′-cyclic monophosphate] | 206 ± 13 nM (3) | – | – | – | – | – | – | – | over 2 fold | ~ 10 fold | 25 | 3.4 | ~ 4 fold | – | – |
